This passage reports IC50 and pKa results from ChEMBL document CHEMBL5214891, “The subgroup of 2'-hydroxy-flavonoids: Molecular diversity, mechanism of action, and anticancer properties” (Bioorg Med Chem, 2021).

Series [1] is described as follows: Downregulation of PSA mRNA expression in human LNCaP cells measured after 12 hrs by RT-PCR assay. It is filed as functional, cell-based.
Series [2] in a line: Dissociation constant, pKa of compound. It is filed as physicochemical.
Series [3] addresses 11-beta-hydroxysteroid dehydrogenase 1 (Homo sapiens, UniProt P28845). Put plainly: Inhibition of human 11beta-HSD1 expressed in HEK-293 cells incubated for 10 mins. It is filed as cell-based, HEK293.

11-beta-hydroxysteroid dehydrogenase 1, sequence (P28845 whole entry): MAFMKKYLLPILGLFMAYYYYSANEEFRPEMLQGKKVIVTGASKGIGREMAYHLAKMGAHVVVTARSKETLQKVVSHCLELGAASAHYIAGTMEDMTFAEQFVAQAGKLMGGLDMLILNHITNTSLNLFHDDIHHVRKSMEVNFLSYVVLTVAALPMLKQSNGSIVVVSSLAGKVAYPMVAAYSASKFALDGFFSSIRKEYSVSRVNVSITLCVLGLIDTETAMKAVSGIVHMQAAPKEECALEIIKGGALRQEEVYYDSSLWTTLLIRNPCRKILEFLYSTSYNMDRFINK

As a reminder, the IC50 is the point on the concentration scale where inhibition reaches its midpoint. A high value points to lower potency. In turn, `O=c1c(-c2ccc(O)cc2O)coc2cc(O[C@@H]3O[C@H](CO)[C@@H](O)[C@H](O)[C@H]3O)cc(O)c12` yielded a half-maximal inhibitory concentration (IC50) in series [1] of 18 µM.
As a reminder, the pKa is the negative logarithm of the acid dissociation constant. A higher pKa goes with a weaker acid or stronger base. The molecule `O=C1CC(c2ccccc2O)Oc2ccccc21` (stereo not drawn) [2'-HYDROXY-FLAVANONE] gave a pKa in series [2] of 6.67. In series [3], the IC50 stood at 10 µM.
